Each structure is given as a SMILES string. Some results are limits rather than exact numbers.

Sequence of recombinant human Myt1 (full length PKMYT1) (Q99640 whole entry): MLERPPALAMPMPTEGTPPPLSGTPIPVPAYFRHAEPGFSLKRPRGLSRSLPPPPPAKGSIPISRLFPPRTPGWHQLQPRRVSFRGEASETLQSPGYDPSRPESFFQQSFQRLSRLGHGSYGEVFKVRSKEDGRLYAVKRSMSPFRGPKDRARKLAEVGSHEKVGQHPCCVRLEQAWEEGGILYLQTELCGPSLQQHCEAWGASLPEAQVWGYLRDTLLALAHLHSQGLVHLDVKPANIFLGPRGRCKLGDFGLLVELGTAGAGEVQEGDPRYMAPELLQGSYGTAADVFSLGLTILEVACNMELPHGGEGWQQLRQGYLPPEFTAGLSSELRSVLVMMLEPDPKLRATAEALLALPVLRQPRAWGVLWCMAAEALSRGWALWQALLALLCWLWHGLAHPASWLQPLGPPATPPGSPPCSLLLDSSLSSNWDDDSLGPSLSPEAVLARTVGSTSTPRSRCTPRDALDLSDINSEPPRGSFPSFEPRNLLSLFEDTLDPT

One assay concerns the target recombinant human Myt1 (full length PKMYT1) (Homo sapiens (Human), UniProt Q99640). The assay is described as follows: Recombinant human Myt1 kinase assay (ADP-Glo). It counts as biochemical. The note with it: 10 μM ATP. How it is done: Detection of Myt1 kinase activity utilized a recombinant human Myt1 kinase assay measuring the hydrolysis of ATP using a commercially available ADP-Glo Assay (ADP-Glo™ Kinase Assay from Promega, 10 000 assays, #V9102). Briefly, 5 μL recombinant human Myt1 (full length PKMYT1 recombinant human protein expressed in insect cells from Thermo Fisher #A33387; ˜80% purity) was prepared in reaction buffer (70 mM HEPES, 3 mM MgCl2, 3 mM MnCl2, 50 μg/ml PEG 20000, 3 μM Na-orthovanadate, 1.2 mM DTT) and added to 384 well white polystyrene, flat bottom well, non-treated, microplate (Corning #3572). After this, 5 μL of compounds (diluted in reaction buffer to 0.5% DMSO) was added to the microplate and the plate was spun briefly and incubated at 22° C. for 15 minutes. Ultra-Pure Adenosine Triphosphate (ATP) solution (ADP-Glo kit from Promega) was diluted in reaction buffer and 5 μL was added to the microplate, spun down briefly and incubated for 60 minutes at 30° C. The final Myt1 enzyme concentration was 18 nM and the final ATP concentration was 10 μM. After the 60-minute incubation, 15 μL of ADP-Glo reagent was added and the plate was spun briefly and sealed and incubated in the dark for 40 minutes at 22° C. Following this, 30 μL of kinase detection reagent was added per well and the plate was spun briefly, sealed and incubated for 45-60 minutes at 22° C. in the dark. Luminescence was read using the Envision (250 ms integration). The IC50 and the % max inhibition were calculated for each inhibitor compound tested.
As for `Cc1ccc2[nH]ncc2c1-c1cc(-c2ccnc(OC3CCOCC3)n2)nc(C(N)=O)c1N` (atropisomer, axis not shown) [Compound 231], the IC50 worked out at 231 nM.

Take `Cc1ccc2[nH]ncc2c1-c1cc(-c2ccnc(OCCN3CCCC3)n2)nc(C(N)=O)c1N` (atropisomer, axis not shown) [Compound 233]: the IC50 amounted to 859 nM.

Consider `Cc1ccc2[nH]ncc2c1-c1cc(-c2cccc(OCc3ncccn3)n2)nc(C(N)=O)c1N` (atropisomer, axis not shown) [Compound 234], for which the IC50 worked out at 1880 nM.

Take `COCCOc1cccc(-c2cc(-c3c(C)ccc4[nH]ncc34)c(N)c(C(N)=O)n2)n1` (atropisomer, axis not shown) [Compound 270]: the IC50 is 1160 nM.

For `Cc1ccc2[nH]ncc2c1-c1cc(-c2cccc(OCCN3CCCC3)n2)nc(C(N)=O)c1N` (atropisomer, axis not shown) [Compound 271], the IC50 is 1090 nM.

On to `Cc1ccnc(-c2cc(-c3c(C)ccc4[nH]ncc34)c(N)c(C(N)=O)n2)c1` (atropisomer, axis not shown) [Compound 280], for which the IC50 stood at 11 nM.

In the case of `CO[C@@H](COc1nccc(-c2cc(-c3c(C)ccc4[nH]ncc34)c(N)c(C(N)=O)n2)n1)c1ccccc1` (atropisomer, axis not shown) [Compound 308], the IC50 came out at 1740 nM.

The next assay deals with PKMYT1 (CDK1 pThr14) in FUOV1 cells. Put plainly: PKMYT1 cell-based activity assay, CDK1 pThr14 AlphaLISA in FUOV1 cells. The note with it: 2 h, 2 hours with compound, read-out: FUOV-1 CDK1 pThr14 IC50. The method in brief: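 FUOV1 cells were treated with PKMYT1 inhibitor for 2 h at 37 °C, then lysed. CDK1 pThr14 was measured by AlphaLISA, pairing an anti-pThr14 antibody with an anti-total CDK1 antibody (5 nM each). Signal read at 680/615 nm and used to derive IC50.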
On to `Cc1ccc2[nH]ncc2c1-c1nc(-c2ccncc2Nc2ncccn2)nc(C(N)=O)c1N` [Compound 951], for which the IC50 is 16 nM.

As to `Cc1ccc(-c2nc(C(N)=O)c(N)c(-c3c(F)ccc4[nH]ncc34)n2)c(Nc2ncccc2F)n1` [Compound 952], the IC50 amounted to 1 nM.

On to `Cc1ccc(-c2nc(C(N)=O)c(N)c(-c3c(F)ccc4[nH]ncc34)n2)c(Nc2ncccn2)n1` [Compound 953], for which the 50% inhibitory concentration (IC50) was 153 nM.

For the compound `Cc1ncc(F)c(Nc2nc(F)ccc2-c2nc(C(N)=O)c(N)c(-c3c(C)ccc4[nH]ncc34)n2)n1` [Compound 954, 5-amino-2-(6-fluoro-2-((5-fluoro-2-methylpyrimidin-4-yl)amino)pyridin-3-yl)-6-(5-methyl-1H-indazol-4-yl)pyrimidine-4-carboxamide], the IC50 turned out to be 11 nM.

Take `Cc1ccc2[nH]ncc2c1-c1nc(-c2cc(Cl)ncc2Nc2ncccn2)nc(C(N)=O)c1N` [Compound 955, 5-amino-2-(2-chloro-5-(pyrimidin-2-ylamino)pyridin-4-yl)-6-(5-methyl-1H-indazol-4-yl)pyrimidine-4-carboxamide]: the IC50 was found to be 51 nM.

In the case of `Cc1ccc(-c2nc(C(N)=O)c(N)c(-c3c(C)ccc4[nH]ncc34)n2)c(N[C@H]2C[C@@](C)(O)C2)n1` [Compound 956], the IC50 amounted to 92 nM.

On to `[2H]C([2H])([2H])c1ccc2[nH]ncc2c1-c1nc(-c2cccnc2NC23CC(C#N)(C2)C3)nc(C(N)=O)c1N` [Compound 957, 5-amino-2-[2-[(3-cyano-1-bicyclo[1.1.1]pentanyl)amino]-3-pyridyl]-6-[5-(trideuteriomethyl)-1H-indazol-4-yl]pyrimidine-4-carboxamide], for which the IC50 came out at 160 nM.

Consider `N#Cc1ccc(-c2nc(C(N)=O)c(N)c(-c3c(Cl)ccc4[nH]ncc34)n2)c(Nc2ncccn2)c1` [Compound 958], for which the IC50 was found to be 32 nM.

As for `[2H]C([2H])([2H])c1ccc2[nH]ncc2c1-c1nc(-c2ccc(C(F)F)nc2Nc2ncccc2F)nc(C(N)=O)c1N` [Compound 959], the IC50 amounted to 8 nM.

In the case of `[2H]C([2H])([2H])c1ccc(-c2nc(C(N)=O)c(N)c(-c3c(C([2H])([2H])[2H])ccc4[nH]ncc34)n2)c(Nc2ncccn2)n1` [Compound 960], the IC50 came out at 40 nM.

Turning to `[2H]C([2H])([2H])c1ccc2[nH]ncc2c1-c1nc(-c2cccnc2NC23CC(C(=O)OC)(C2)C3)nc(C(N)=O)c1N` [Compound 961, methyl 3-((3-(5-amino-4-carbamoyl-6-(5-(methyl-d3)-1H-indazol-4-yl)pyrimidin-2-yl)pyridin-2-yl)amino)bicyclo[1.1.1]pentane-1-carboxylate], the IC50 was 223 nM.

On to `[2H]C([2H])([2H])c1ccc2[nH]ncc2c1-c1nc(-c2cccnc2NC23CC(C(N)=O)(C2)C3)nc(C(N)=O)c1N` [Compound 962, 5-amino-2-(2-((3-carbamoylbicyclo[1.1.1]pentan-1-yl)amino)pyridin-3-yl)-6-(5-(methyl-d3)-1H-indazol-4-yl)pyrimidine-4-carboxamide], for which the IC50 stood at 702 nM.

On to `COc1c(C(N)=O)nc(-c2cccnc2Nc2nc(F)ccc2F)nc1-c1c(C)ccc2[nH]ncc12` [Compound 963, 2-(2-((3,6-difluoropyridin-2-yl)amino)pyridin-3-yl)-5-methoxy-6-(5-methyl-1H-indazol-4-yl)pyrimidine-4-carboxamide], for which the IC50 is > 10000 nM.

Turning to `[2H]C([2H])([2H])c1ccc2[nH]ncc2c1-c1nc(-c2cc(F)cnc2N[C@H]2C[C@@](C)(O)C2)nc(C(N)=O)c1N` [Compound 964], the IC50 amounted to 68 nM.

Take `NC(=O)c1nc(-c2ccc(Cl)nc2Nc2ncccc2F)nc(-c2c(F)ccc3[nH]ncc23)c1N` [Compound 965]: the IC50 was 8 nM.

Consider `[2H]C([2H])([2H])c1ccc2[nH]ncc2c1-c1nc(-c2ccc(Cl)nc2Nc2nccnc2F)nc(C(N)=O)c1N` [Compound 966], for which the IC50 came out at 11 nM.

For `NC(=O)c1nc(-c2cccnc2NC2CC2)nc(-c2c(Cl)cc(F)c3[nH]ncc23)c1N` [Compound 967], the IC50 came to 212 nM.

Turning to `N#Cc1cccnc1Nc1cc(F)ccc1-c1nc(C(N)=O)c(N)c(-c2c(F)ccc3[nH]ncc23)n1` [Compound 968], the IC50 stood at 4 nM.

As to `N#Cc1cccnc1Nc1nc(F)ccc1-c1nc(C(N)=O)c(N)c(-c2c(F)ccc3[nH]ncc23)n1` [Compound 969], the IC50 worked out at 16 nM.

On to `NC(=O)c1nc(-c2ccc(C(F)F)nc2Nc2ncccc2F)nc(-c2c(F)ccc3[nH]ncc23)c1N` [Compound 970], for which the IC50 is 40 nM.

Turning to `NC(=O)c1nc(-c2ccc(F)nc2Nc2ncccc2F)nc(-c2c(F)ccc3[nH]ncc23)c1N` [Compound 971], the IC50 came to 21 nM.

In the case of `[2H]C([2H])([2H])c1ccc2[nH]ncc2c1-c1nc(-c2ccc(F)nc2Nc2nc(C)ncc2F)nc(C(N)=O)c1N` [Compound 972], the IC50 turned out to be 14 nM.

In the case of `[2H]C([2H])([2H])c1ccc2[nH]ncc2c1-c1nc(-c2ccc(C(F)F)nc2Nc2nc(C)ncc2F)nc(C(N)=O)c1N` [Compound 973], the IC50 was 53 nM.

Take `[2H]C([2H])([2H])c1ccc2[nH]ncc2c1-c1nc(-c2ccc(C3CC3)nc2Nc2ncccn2)nc(C(N)=O)c1N` [Compound 974, 5-amino-2-(6-cyclopropyl-2-(pyrimidin-2-ylamino)pyridin-3-yl)-6-(5-(methyl-d3)-1H-indazol-4-yl)pyrimidine-4-carboxamide]: the IC50 worked out at 186 nM.

On to `CCc1ccc(-c2nc(C(N)=O)c(N)c(-c3c(C)ccc4[nH]ncc34)n2)c(Nc2ncccc2F)n1` [Compound 975], for which the IC50 worked out at 14 nM.

`COc1cc(-c2nc(C(N)=O)c(N)c(-c3c(C)ccc4[nH]ncc34)n2)c(Nc2ncccc2F)cn1` [Compound 976, 5-amino-2-(5-((3-fluoropyridin-2-yl)amino)-2-methoxypyridin-4-yl)-6-(5-methyl-1H-indazol-4-yl)pyrimidine-4-carboxamide]: the IC50 turned out to be 22 nM.

As to `[2H]C([2H])([2H])c1ccc2[nH]ncc2c1-c1nc(-c2ccc(C3CC3)nc2Nc2nc(C)ncc2F)nc(C(N)=O)c1N` [Compound 977], the IC50 is 203 nM.

Source of the values: patent publication US20250304537A1 (Repare Therapeutics Inc., priority 2022, published 2025).
